Reference: the NIST ThermoML archive (doi:10.1016/j.fluid.2006.07.003)
Numbers after ± are expanded uncertainties.

How the values were obtained:
[1] = Liquid; for mass density: 298.15 K, 101.33 kPa
[2] = refractive index (Na D-line) (dimensionless); conditions: 298.15 K; 101.33 kPa; Liquid; Standard Abbe refractometry

| mass density [1] | vapor or sublimation pressure ([1]; 410.62 K) | refractive index [2] | vapor or sublimation pressure ([1]; 363.16 K) | vapor or sublimation pressure ([1]; 369.75 K) | Structure (SMILES) |
| --- | --- | --- | --- | --- | --- |
| 810.89 ± 0.77 kg/m3 | 101.3 ± 1.8 kPa | 1.408 ± 0.0008 | – | – | CCCCCO [pentan-1-ol] |
| 741.81 ± 0.91 kg/m3 | – | 1.3784 ± 0.0008 | 101.3 ± 1.8 kPa | – | CCCOCCC [dipropyl ether] |
| 799.62 ± 0.48 kg/m3 | – | 1.3836 ± 0.0007 | – | 101.3 ± 1.8 kPa | CCCO [propan-1-ol] |
